Test results as given in patent US5348941A, “Stabilizers for fibroblast growth factors” (Merck & Co., Inc., priority 1992, dated 1994).
Values belong to the molecule of their own block, whether it stands above or below them.

How the values were obtained:
aFGF [1] = target: T1, aFGF (Homo sapiens, UniProt P05230); experiment: Thermal denaturation (Tm) of aFGF by circular dichroism; format: biochemical; conditions: for Tm of aFGF (maximum Tm induced by ligand), circular dichroism: PBS pH 7.2, excess ligand (1-3X by weight; 120 mM sodium sulfate, 10 mM tetrapolyphosphate)
T1 construct: The recombinant derived, 140 amino add form is the preferred form of aFGF; N-terminal methionine (MetHaFGF); made in house; host or cells: microbial cells (preferred embodiment)
Protocol: Circular Dichroism (CD) spectra are measured with an AVIV 62 DS spectropolarimeter. Samples of aFGF at about 100 μg/ml in a PBS buffer (6 mM sodium phosphate, 120 mM NaCl, pH 7.2) containing various ligands are placed into 1 mm pathlength cells and the cell temperature is controlled by circulating a water/ethylene glycol mixture through the cell holder. Thermal denaturation is carded out under computer control by increasing the temperature of the water bath in 2° C. increments, followed by a two-minute equilibration period at each temperature to allow the sample to reach thermal equilibrium. Reproducibility of the midpoint of these temperature melting curves (Tm) is ±2° C.
The maximum Tm values induced by 12 different ligands as determined by circular dichroism measurements at 228 nm are summarized in the first column of Table II. All of these ligands stabilize aFGF by 15°-25° C. in a manner similar to that originally observed with heparin. […] Furthermore, sulfate unions are found near analogous residues in the crystal structure of basic FGF, Eriksson et al., Proc. Natl. Acad. Sd. USA 88:3441-3445 (1991); Zhang et al., Proc. Natl. Acad. Sci. USA 88:3446-3450 (1991). Consequently, it seemed important to examine the ability of these ligands to stabilize aFGF during thermal denaturation as monitored by both fluorescence and circular dichroism. The Tm value of aFGF increased from 27° C. to 43° C. (fluorescence)and 45° C. to 51° C. (CD) when a 100 molar excess (3X by weight) of (IrCl6)^-3 was present. Similarly, sulfate union (120 mM) produced a species that was even more dramatically stabilized, melting at 57° C. (CD).
^(a) Thermal melting temperatures were measured by circular dichroism
Samples contained […] aFGF in PBS buffer pH 7.2 with excess ligand
(1-3× by weight except for 120 mM sodium sulfate and 10 mM

aFGF [2] = target: T1, aFGF; experiment: Thermal denaturation (Tm) of aFGF by fluorescence spectroscopy; format: biochemical; conditions: PBS pH 7.2
Protocol: Fluorescence spectra are obtained with a Spex Fluorolog-2 spectrofiuorometer using a 1 mm pathlength cuvette. Band passes from 1-2 nm are employed with sample absorptivities maintained below 0.1 at 280 nm. The temperature is controlled either manually or automatically as described above. Reproducibility of thermal denaturation temperatures (Tm) is ± 2° C.
To more directly ascertain the effect of heparin on aFGF stability, the temperature-induced denaturation of aFGF as a function of heparin concentration was monitored by fluorescence spectroscopy. Fluorescence spectra were obtained with a Spex Fluorolog-2 spectrofiuorometer using a 1 mm pathlength cuvette. Band passes from 1-2 nm were employed with sample absorptivities maintained below 0.1 at 280 nm. The temperature was controlled either manually or automatically as described above. Reproducibility of thermal denaturation temperatures (Tm) was ±2° C. […] Experiments were carried out at 100 μg/ml protein (6.3 μM) in a PBS buffer at pH 7.2. Curve drawn through data points for clarity only.
Studies of the stabilization of aFGF by heparin are difficult to interpret because of the inherent heterogeneity of heparin preparations, Lane and Lindahl, Eds. Heparin, Chemical and Biological Properties, Clinical Applications, Edward Arnold, London (1989); Jackson, et al., Physiol. Rev. 71: 481-539 (1991). In order to better understand the polyanionic stabilization of aFGF, a series of well-defined fragments of heparin were examined for their ability to stabilize aFGF against thermal denaturation. These enzymatically prepared and purified fragments varied in size from a disaccharide to a decasaccharide. Each fragment was incubated with aFGF at a 1:1 weight ratio in a PBS buffer. The sample was then stressed by temperature and structural changes in aFGF were monitored by both circular dichroism and fluorescence spectroscopy. […] All samples contained 100 μg/ml aFGF (6.3 μM)in a PBS buffer (pH 7.2) with 100 μg/ml of each heparin fragment.
Since these fragments of heparin have a well-defined molecular weight, the molar ratio of aFGF to ligand during these thermal denaturation experiments can be calculated. The Tm of aFGF as a function of the molar concentration of the hexasaccharide was measured by fluorescence spectroscopy. Fluorescence spectra were obtained with a Spex Fluorolog-2 spectrofiuorometer using a 1mm pathlength cuvette. Band passes from 1-2 nm were employed with sample absorptivities maintained below 0.1 at 280 nm. The temperature was controlled either manually or automatically as described above. Reproducibility of thermal denaturation temperatures (Tm) was ±2° C.
Analogous to the heparin experiments illustrated in Example 1 (FIG. 3), aFGF thermal stability was monitored by fluorescence spectroscopy as a function of concentration for several other of the polyanions. […] All samples contained 100 μg/ml of aFGF (6.3 μM) in a PBS buffer at pH 7.2.

aFGF [3] = target: T1, aFGF; experiment: Copper-catalyzed oxidation of aFGF thiol groups; format: biochemical; conditions: ligand 3X by weight; sodium sulfate 120 mM, tetrapolyphosphate 10 mM
Protocol: Copper-catalyzed oxidation of aFGF is carried out in the following manner. Acidic FGF (about 80 μg/ml) is incubated in a 20 mM Tris, 0.15M potassium chloride, pH 8 solution containing about 20 μM cuptic chloride for varying periods of time at room temperature. The reaction was terminated by the addition of 100 mM EDTA in the same buffer. A solution of about 0.7 ml of 0.25M Tris (about pH 8) containing about 2 mM EDTA and about 7 M GuHC1 is then added followed by about 35 μl of 4 mg/ml of DTNB (Sigma). Samples were incubated for 30 minutes, filtered through a 0.22 micron filter and the optical density measured at about 412 nm to determine sulfhydryl content, Riddles et al., Meth. Enzymol. 9:49-60 (1983). Relative standard deviation of the obtained values during time course experiments is 12%.
Acidic FGF contains three free cysteine residues at positions […], 83 and 117 in the polypeptide chain. […] It has also been shown that the copper catalyzed oxidative formation of a disulfide bond in the wild-type aFGF inactivates the protein in an in vitro mitogenic assay, Ortega et al., J. Biol. Chem. 266:5842-5846 (1991). Therefore, it was of interest to determine the extent to which heparin can stabilize aFGF against inactivation by oxidation. […] Samples contained 80 μg/ml aFGF with (a) 3X heparin by weight, (b) 0.1X heparin by weight and (c) buffer alone. As heparin was introduced and its concentration increased, the rate of copper-catalyzed oxidation decreased. For example, after 20 minutes, greater than 95% of the cysteine residues of aFGF are protected from oxidation with 3X heparin. FIG. 4B illustrates the fraction of remaining reactive thiol groups after a 10-minute incubation with cupric chloride as a function of heparin concentration.
Some aggregation of aFGF occurs under the conditions of these experiments presumably due to at least partial intermolecular disulfide formation. Thus, these measurements could simply be a measurement of the loss of solubility induced by copper association with aFGF. Several experiments, however, argue against this possibility. First, previous work has shown that at dilute protein concentration, copper does indeed catalyze oxidation of thiol groups of aFGF, Ortega et al., J. Biol. Chem. 266:5842-5846 (199 1 ). Second, as a control experiment, the copper-catalyzed oxidation of aFGF was carded out in a buffer containing 6 M GuHCl. Under these denaturing conditions, nearly 100% of the thiol groups in solution were lost after 10 minutes without visible aggregation. […] Regardless of the precise mechanism, copper addition is a distinct mechanism of inactivation compared to thermal stress.
Similar protection against oxidation experiments were carried out with other negatively charged compounds with an excess of ligand (3X by weight except for sodium sulfate at 120 mM and tetrapolyphosphate at 10 mM) added to aFGF before copper catalyzed oxidation. As shown in the second column of Table 2, all of these agents at least partially protect the cysteine residues of aFGF from oxidation.
^(b) Percentage of aFGF thiols remaining in solution after 10 min
incubation with cupric chloride. Experimental conditions are described in
FIG. 10. All samples contained ligand at 3× (by weight) except
sodium sulfate (120 mM) and tetrapolyphosphate (10 mM).

[4] = test system: BALB/c 3T3 A31 fibroblasts; experiment: Fibroblast mitogenic assay ([3H]-thymidine incorporation into DNA); format: cell-based; set-up: Bioactivity (mitogenic activity of aFGF in the presence of ligand): unit not given here; conditions: complete absence of heparin; < = response did not plateau; * = cell death observed
Protocol: Biological activity of the formulation of the instant invention is determined by a modification of the fibroblast mitogenic assay as described by Linemeyer et al. in European Patent Application, Publication No. 259,953. BALB/c 3T3 A31 fibroblasts (American Type Culture Collection) are plated at about 3×10^5 cells per 32 cm^2 wells in culture media containing about 10% heat-inactivated calf serum and incubated in about 7% CO2 (pH 7.35±0.05). The cells become fully quiescent by replacing the media with serum free media at about 6, about 24 hours and about 48 hours later. At about 53 hours after plating samples of the various formulations are added and about 0.12 μg of dexamethasone are added. At about 65 hours each well is supplemented with about 0.4 μCi of [methyl-^3 H]-thymidine (20 Ci/mmole, Dupont) and 0.6 μg of unlabeled thymidine (Sigma), and at 80 hours the cells are processed for determination of radiolabel incorporation into DNA. Each dose-response point is the average of at least quadruplicate determinations. Other cell types such vascular endothelial cells and corneal endothelial cells can be employed to determine in vitro mitogenicity. The procedures are described in detail by Thomas et al., Proc. Natl. Acad. Sci. USA 82:6409-6431 (1985).
^(d) Mitogenic activity of aFGF was measured in the presence of ligan
indicated in the complete absence of heparin.
*indicates cell death observed during assay.
Biological activity of the formulation of the instant invention was determined by a modification of the fibroblast mitogenic assay as described by Linemeyer et al. in European Patent Application, Publication No. 259,953. BALB/c 3T3 A31 fibroblasts (American Type Culture Collection) were plated at 3×10^5 cells per 32 cm^2 well in culture media containing about 10% heat-inactivated calf serum and incubated in 7% CO2 (pH 7.35±0.05). The cells become fully quiescent by replacing the media with serum free media at 6, 24 hours and 48 hours later. At 53 hours after plating samples of the various formulations were added and 0.12 μg of dexamethasone was added, at 65 hours each well was supplemented with 0.4 μCi of [methyl-^3 H]-thymidine (20 Ci/mmole, Dupont) and 0.6 μg of unlabeled thymidine (Sigma), and at 80 hours the cells were processed for determination of radiolabel incorporation into DNA. Each dose-response point is the average of at least quadruplicate determinations. Other cell types such vascular endothelial cells and corneal endothelial cells can be employed to determine in vitro mitogenidty. The procedures are described in detail by Thomas et al., Proc. Natl. Acad. Sci. USA 82:6409-6431 (1985).

[5] = Storage stability of aFGF formulations (protein mass and biological activity); conditions: versus EDTA or EGTA
From the text: Stabilization of aFGF can be determined by several independent methods including turbidity measurements, spectroscopic techniques, maintenance of protein mass, mitogenic activity and copper catalyzed oxidation. Since acidic fibroblast growth factor is unstable at physiological temperatures (undergoing large structural changes, including aggregation, which results in a loss of mitogenic and wound healing activity), human aFGF stability can be monitored by evaluating the turbidity of the pharmaceutical composition by following the kinetics of temperature induced aggregation of unfolded protein.

T1 sequence (P05230 16-155 limits assumed): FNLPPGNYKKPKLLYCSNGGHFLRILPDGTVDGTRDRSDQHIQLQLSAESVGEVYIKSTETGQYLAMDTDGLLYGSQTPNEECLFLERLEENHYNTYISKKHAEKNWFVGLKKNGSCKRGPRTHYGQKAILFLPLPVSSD

Molecule: O=S(=O)([O-])[O-].[Na+].[Na+] [Sodium Sulfate, sodium sulfate]
Cu Oxidation (% SH Lost in 10 Mins) (aFGF [3]): 25% | Tm of aFGF (maximum Tm induced by ligand), circular dichroism (aFGF [1]): 57 °C | Bioactivity (mitogenic activity of aFGF in the presence of ligand) [4]: 0

Molecule: O=C(O)CC(O)(CC(=O)O)C(=O)O [citrate]
effectiveness of chelating agent in stabilizing the aFGF-stabilizer-HEC combination [5]: not as effective as EDTA or EGTA

Molecule: sulfated γ-cyclodextrin
Cu Oxidation (% SH Lost in 10 Mins) (aFGF [3]): 5% | Tm of aFGF (maximum Tm induced by ligand), circular dichroism (aFGF [1]): 70 °C

Now from value to molecule, other results behind:

Tm of aFGF, circular dichroism (aFGF [1]; 3X ligand by weight): 51 °C | thermal melting temperature (Tm) of aFGF, fluorescence (aFGF [2]; 3X ligand by weight): 43 °C
Molecule: [Cl][Ir-3]([Cl])([Cl])([Cl])([Cl])[Cl] [(IrCl6)^-3, reference compound]

Tm of aFGF (maximum Tm induced by ligand), circular dichroism (aFGF [1]): 65 °C
Molecule: O=S(=O)(O)OC[C@H]1O[C@@](COS(=O)(=O)O)(O[C@H]2O[C@H](COS(=O)(=O)O)[C@@H](OS(=O)(=O)O)[C@H](OS(=O)(=O)O)[C@H]2OS(=O)(=O)O)[C@@H](OS(=O)(=O)O)[C@@H]1OS(=O)(=O)O [Sucrose octasulfate, sucrose octasulfate]
Bioactivity (mitogenic activity of aFGF in the presence of ligand) [4]: 2.5

effect of heparin fragment on Tm of aFGF (aFGF [2]; 1:1 weight ratio, fluorescence and circular dichroism): did not influence the Tm of aFGF
Molecule: O=C(O)C1=C[C@H](O)[C@@H](OS(=O)(=O)O)[C@H](O[C@H]2[C@H](O)[C@@H](NS(=O)(=O)O)[C@@H](O)O[C@@H]2COS(=O)(=O)O)O1 [disaccharide, Δ.orgate.Ap2S(1→4)-α-D-GlcNp2S6S]

effectiveness of chelating agent in stabilizing the aFGF-stabilizer-HEC combination [5]: not as effective as EDTA or EGTA
Molecule: N[C@@H](Cc1c[nH]cn1)C(=O)O [histidine]
